These results are taken from article PMC12435366, “Maleic anhydride derived diphosphines: adaptable chelators for receptor-targeted ^99mTc, ^64Cu and ^188Re radiotracers” (Chemical Science, 2025).

For the series, the system named is DU145-PSMA+ prostate cancer xenografts. In kind it is in vivo, mice. The conditions noted are these: for tumour delineation in SPECT/CT scans: male SCID/Beige mice bearing DU145-PSMA+ xenografts, SPECT 15 to 120 min post-injection; for clearance from blood pool (SPECT/CT): mouse, in vivo. As for the experimental part: The biodistribution of [^99mTcO2(DP^An-PSMAt)2]^+ and [^99mTcO2(DP^MEP-PSMAt)2]^+ was studied using SPECT/CT imaging and ex vivo biodistribution methods. In these studies, [^99mTcO2(DP^An-PSMAt)2]^+ and [^99mTcO2(DP^MEP-PSMAt)2]^+ were used directly from kit-based formulations, without further purification, mimicking procedures used in clinical radiopharmacies and nuclear medicine departments. Mice were injected with [^99mTcO2(DP^An-PSMAt)2]^+ or [^99mTcO2(DP^MEP-PSMAt)2]^+ (4–5 MBq), containing 3 μg (2.6 nmol) of DP^An-PSMAt or 3.5 μg (2.6 nmol) of (DP^MEP-PSMAt) via the tail-vein, and culled 2 h post-injection, followed by dissection, organ/tissue weighing and counting.
SPECT/CT studies were undertaken in male SCID/Beige mice bearing DU145-PSMA+ prostate cancer xenografts administered [^99mTcO2(DP^An-PSMAt)2]^+ and [^99mTcO2(DP^MEP-PSMAt)2]^+. SPECT images were acquired from 15 to 120 min post-injection of radiotracer. […]
4.10 In vivo imaging and biodistribution (DU145-PSMA+ and LNCaP)
Preparation of tumour-bearing mice: All animal experiments were ethically reviewed by an Animal Welfare & Ethical Review Board at either King’s College London or Bart’s Cancer Institute and carried out in accordance with the Animals (Scientific Procedures) Act 1986 UK Home Office regulations governing animal experimentation. Subcutaneous prostate cancer xenografts were produced in SCID/beige mice (male, 7–12 weeks old) by injecting 4 × 10^6 DU145-PSMA+ or DU145 cells suspended in PBS (100 μL) on the right shoulder. Imaging and biodistribution studies were performed once a tumour had reached 5–10 mm in diameter (3–4 weeks after injection). Subcutaneous LNCaP prostate cancer xenografts were produced in athymic nude (Crl:NU(NCr)-Foxn1nu) mice (male, 6–7 weeks old) by injecting 5 × 10^6 LNCaP cells suspended in PBS:matrigel (1:1, 200 μL) on the right flank.
Biodistribution studies using 99mTc radiotracers were performed once a tumour had reached 150– 300 mm3 in volume (2–7 weeks after injection).
SCID/beige mice bearing DU145-PSMA+ prostate cancer tumour xenografts
SPECT/CT scanning and biodistribution studies: The 99mTc radiotracers (3.9–4.5 MBq, 3 mice per group, containing DPAn-PSMAt = 3.0 µg or DPMEP-PSMAt = 3.5 µg) were administered via tail vein injection under isoflurane anaesthesia. […]
in helical scanning mode). At 2 h post-injection, the animals were euthanized by cervical dislocation, organs/tissues harvested and weighed, and radioactivity counted using a gamma […]
ii. […] After scanning, the organs/tissues were harvested, weighed and radioactivity counted […]
Urine was collected and directly analysed by reverse-phase radio-HPLC (method 2). Data were analysed in GraphPad Prism 9 (version 9.1.1) and expressed as mean ± standard deviation (SD). […]

Turning to `COCCOc1ccc(P(/C(C(=O)O)=C(/C(=O)NCCOCCOCCOCCOCCC(=O)NCCCC[C@H](NC(=O)N[C@@H](CCC(=O)O)C(=O)O)C(=O)O)P(c2ccc(OCCOC)cc2)c2ccc(OCCOC)cc2)c2ccc(OCCOC)cc2)cc1` [[^99mTcO2(DP^MEP-PSMAt)2]^+, metal not drawn], the “tumour delineation in SPECT/CT scans” value is listed as “could be delineated” and the “clearance from blood pool (SPECT/CT)” value is recorded as “rapidly cleared from the blood pool via a renal pathway”.
As to `COc1ccc(P(/C(C(=O)O)=C(/C(=O)NCCOCCOCCOCCOCCC(=O)NCCCC[C@H](NC(=O)N[C@@H](CCC(=O)O)C(=O)O)C(=O)O)P(c2ccc(OC)cc2)c2ccc(OC)cc2)c2ccc(OC)cc2)cc1` [[^99mTcO2(DP^An-PSMAt)2]^+, metal not drawn], the “tumour delineation in SPECT/CT scans” value is reported as “could be delineated” and the “clearance from blood pool (SPECT/CT)” value is recorded as “rapidly cleared from the blood pool via a renal pathway”.
